Assay results as given in PubChem BioAssay AID248 (DTP/NCI, 2004).
Where “and” joins values, the source holds several entries; their conditions need not be identical. Identical values can stand only once. Inconclusive results and toxic doses are left out.

Test system: L1210 leukemia ip in BDF1 mice, survival T/C
Experiment: NCI In Vivo Anticancer Drug Screen. Data for tumor model L1210 Leukemia (intraperitoneal) in B6D2F1 (BDF1) mice
Details: higher = longer survival
Outline: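 Survival endpoint. Drug-treated group vs vehicle group, expressed as T divided by C. Tumor passaged by transplantation.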

[1] = endpoint: mean survival time, dose: 10.0 mg/kg/injection, schedule: Q01DX009 (ip), vehicle: saline
[2] = endpoint: mean survival time, dose: 100.0 mg/kg/injection, schedule: Q01DX001 (ip), vehicle: saline
[3] = endpoint: mean survival time, dose: 200.0 mg/kg/injection, schedule: Q01DX001 (ip), vehicle: saline

For `OCC1OC(n2cnc3c(=S)nc[nH]c32)C(O)C1O` (stereo not drawn), the T/C (endpoint: mean survival time, dose: 4.69 mg/kg/injection, schedule: Q01DX009 (ip), vehicle: water) was 103 % of control, the T/C (endpoint: mean survival time, dose: 9.38 mg/kg/injection, schedule: Q01DX009 (ip), vehicle: water) was 109 % of control and the T/C [1] was 117 % of control and 120 % of control. For the same compound, the T/C (endpoint: mean survival time, dose: 14.02 mg/kg/injection, schedule: Q01DX Z (ip), vehicle: carboxymethylcellulose (CMC)) was 121 % of control, the T/C (endpoint: mean survival time, dose: 17.88 mg/kg/injection, schedule: Q01DX Z (ip), vehicle: carboxymethylcellulose (CMC)) was 119 % of control and the T/C (endpoint: mean survival time, dose: 18.25 mg/kg/injection, schedule: Q01DX Z (ip), vehicle: carboxymethylcellulose (CMC)) was 122 % of control. For the same compound, the T/C (endpoint: mean survival time, dose: 18.75 mg/kg/injection, schedule: Q01DX009 (ip), vehicle: water) was 117 % of control, the T/C (endpoint: mean survival time, dose: 20.0 mg/kg/injection, schedule: Q01DX010 (ip), vehicle: saline) was 111 % of control and the T/C (endpoint: mean survival time, dose: 23.83 mg/kg/injection, schedule: Q01DX Z (ip), vehicle: carboxymethylcellulose (CMC)) was 115 % of control. The T/C (endpoint: mean survival time, dose: 35.75 mg/kg/injection, schedule: Q01DX Z (ip), vehicle: carboxymethylcellulose (CMC)) was 123 % of control, the T/C (endpoint: mean survival time, dose: 36.5 mg/kg/injection, schedule: Q01DX Z (ip), vehicle: carboxymethylcellulose (CMC)) was 123 % of control and the T/C (endpoint: mean survival time, dose: 37.5 mg/kg/injection, schedule: Q01DX009 (ip), vehicle: water) was 112 % of control. The T/C (endpoint: mean survival time, dose: 37.5 mg/kg/injection, schedule: Q01DX Z (ip), vehicle: carboxymethylcellulose (CMC)) was 100 % of control, the T/C (endpoint: mean survival time, dose: 50.0 mg/kg/injection, schedule: Q01DX009 (ip), vehicle: saline) was 121 % of control and the T/C (endpoint: mean survival time, dose: 75.0 mg/kg/injection, schedule: Q01DX015 (ip), vehicle: carboxymethylcellulose (CMC)) was 151 % of control. For the same compound, the T/C (endpoint: mean survival time, dose: 75.0 mg/kg/injection, schedule: Q01DX Z (ip), vehicle: carboxymethylcellulose (CMC)) was 113 % of control, the T/C (endpoint: mean survival time, dose: 100.0 mg/kg/injection, schedule: Q01DX005 (ip), vehicle: saline) was 123 % of control and the T/C (endpoint: mean survival time, dose: 100.0 mg/kg/injection, schedule: Q01DX009 (ip), vehicle: carboxymethylcellulose (CMC)) was 114 % of control. For the same compound, the T/C (endpoint: mean survival time, dose: 107.25 mg/kg/injection, schedule: Q01DX Z (ip), vehicle: carboxymethylcellulose (CMC)) was 152 % of control, the T/C (endpoint: mean survival time, dose: 120.0 mg/kg/injection, schedule: Q01DX001 (ip), vehicle: carboxymethylcellulose (CMC)) was 98 % of control and the T/C (endpoint: mean survival time, dose: 125.0 mg/kg/injection, schedule: Q03HX024 (ip), vehicle: saline) was 114 % of control. For the same compound, the T/C (endpoint: mean survival time, dose: 150.0 mg/kg/injection, schedule: Q## X Z (ip), vehicle: carboxymethylcellulose (CMC)) was 107 % of control, the T/C (endpoint: mean survival time, dose: 160.0 mg/kg/injection, schedule: Q01DX010 (ip), vehicle: saline) was 153 % of control and 155 % of control and the T/C (endpoint: mean survival time, dose: 180.0 mg/kg/injection, schedule: Q01DX001 (ip), vehicle: alkali diluted with saline) was 108 % of control. The T/C (endpoint: mean survival time, dose: 180.0 mg/kg/injection, schedule: Q01DX001 (ip), vehicle: carboxymethylcellulose (CMC)) was 118 % of control, the T/C (endpoint: mean survival time, dose: 188.0 mg/kg/injection, schedule: Q03HX024 (ip), vehicle: clinical formulation) was 104 % of control and the T/C (endpoint: mean survival time, dose: 188.0 mg/kg/injection, schedule: Q03HX024 (ip), vehicle: saline) was 115 % of control. For the same compound, the T/C (endpoint: mean survival time, dose: 200.0 mg/kg/injection, schedule: Q01DX009 (ip), vehicle: saline) was 163 % of control and 181 % of control, the T/C (endpoint: mean survival time, dose: 270.0 mg/kg/injection, schedule: Q01DX001 (ip), vehicle: alkali diluted with saline) was 119 % of control and the T/C (endpoint: mean survival time, dose: 270.0 mg/kg/injection, schedule: Q01DX001 (ip), vehicle: carboxymethylcellulose (CMC)) was 114 % of control. The T/C (endpoint: mean survival time, dose: 300.0 mg/kg/injection, schedule: Q03HX024 (ip), vehicle: saline) was 95 % of control and 108 % of control, the T/C (endpoint: mean survival time, dose: 320.0 mg/kg/injection, schedule: Q01DX009 (ip), vehicle: saline) was 152 % of control and 166 % of control and the T/C (endpoint: mean survival time, dose: 600.0 mg/kg/injection, schedule: Q01DX001 (ip), vehicle: alkali diluted with saline) was 120 % of control. The T/C (endpoint: mean survival time, dose: 600.0 mg/kg/injection, schedule: Q## X Z (ip), vehicle: carboxymethylcellulose (CMC)) was 93 % of control, the T/C (endpoint: mean survival time, dose: 800.0 mg/kg/injection, schedule: Q01DX001 (ip), vehicle: saline) was 103 % of control and the T/C (endpoint: mean survival time, dose: 800.0 mg/kg/injection, schedule: Q01DX009 (ip), vehicle: carboxymethylcellulose (CMC)) was 122 % of control. For the same compound, the T/C (endpoint: mean survival time, dose: 1000.0 mg/kg/injection, schedule: Q## X Z (ip), vehicle: carboxymethylcellulose (CMC)) was 121 % of control, the T/C (endpoint: mean survival time, dose: 1200.0 mg/kg/injection, schedule: Q01DX001 (ip), vehicle: saline) was 107 % of control and the T/C (endpoint: mean survival time, dose: 1600.0 mg/kg/injection, schedule: Q01DX001 (ip), vehicle: saline) was 114 % of control. The T/C (endpoint: median survival time, dose: 50.0 mg/kg/injection, schedule: Q03HX024 (ip), vehicle: other) was 155 % of control, the T/C (endpoint: median survival time, dose: 100.0 mg/kg/injection, schedule: Q03HX024 (ip), vehicle: other) was 155 % of control and the T/C (endpoint: median survival time, dose: 100.0 mg/kg/injection, schedule: Q03HX024 (sc), vehicle: other) was 150 % of control. The T/C (endpoint: median survival time, dose: 200.0 mg/kg/injection, schedule: Q03HX024 (ip), vehicle: other) was 155 % of control, the T/C (endpoint: median survival time, dose: 200.0 mg/kg/injection, schedule: Q03HX024 (sc), vehicle: other) was 155 % of control and the T/C (endpoint: median survival time, dose: 400.0 mg/kg/injection, schedule: Q03HX024 (ip), vehicle: other) was 111 % of control. For the same compound, the T/C (endpoint: median survival time, dose: 800.0 mg/kg/injection, schedule: Q01DX001 (ip), vehicle: other) was 111 % of control, the T/C (endpoint: median survival time, dose: 800.0 mg/kg/injection, schedule: Q01DX001 (sc), vehicle: other) was 111 % of control and the T/C (endpoint: median survival time, dose: 800.0 mg/kg/injection, schedule: Q04DX003 (ip), vehicle: other) was 122 % of control. The T/C (endpoint: median survival time, dose: 800.0 mg/kg/injection, schedule: Q04DX003 (sc), vehicle: other) was 122 % of control, the T/C (endpoint: median survival time, dose: 1600.0 mg/kg/injection, schedule: Q01DX001 (ip), vehicle: other) was 116 % of control and the T/C (endpoint: median survival time, dose: 1600.0 mg/kg/injection, schedule: Q01DX001 (sc), vehicle: other) was 116 % of control. For the same compound, the T/C (endpoint: median survival time, dose: 3200.0 mg/kg/injection, schedule: Q01DX009 (sc), vehicle: other) was 100 % of control and the T/C (endpoint: median survival time, dose: 3200.0 mg/kg/injection, schedule: Q04DX003 (sc), vehicle: other) was 150 % of control.

In the case of `CC(C)(C)SCCN1C(=O)C2C3CCC(O3)C2C1=O` (stereo not drawn), the T/C (endpoint: mean survival time, dose: 100.0 mg/kg/injection, schedule: Q04DX002 (ip), vehicle: Klucel (hydroxypropylcellulose) (HPC)) is reported as 104 % of control, the T/C (endpoint: mean survival time, dose: 200.0 mg/kg/injection, schedule: Q04DX002 (ip), vehicle: Klucel (hydroxypropylcellulose) (HPC)) is reported as 100 % of control and the T/C (endpoint: mean survival time, dose: 400.0 mg/kg/injection, schedule: Q04DX002 (ip), vehicle: Klucel (hydroxypropylcellulose) (HPC)) is reported as 107 % of control.

`N#C[S-].N#C[S-].[Au+3].[Au+3].[CH3-].[CH3-].[CH3-].[CH3-]` was tested, and the T/C (endpoint: mean survival time, dose: 50.0 mg/kg/injection, schedule: Q01DX009 (ip), vehicle: saline with Tween-80) was 96 % of control, the T/C (endpoint: mean survival time, dose: 100.0 mg/kg/injection, schedule: Q01DX009 (ip), vehicle: saline with Tween-80) was 109 % of control and the T/C (endpoint: mean survival time, dose: 200.0 mg/kg/injection, schedule: Q01DX009 (ip), vehicle: saline with Tween-80) was 105 % of control.

In the case of `CC(=O)Nc1cc(F)c([N+](=O)[O-])cc1[N+](=O)[O-]`, the T/C (endpoint: mean survival time, dose: 0.62 mg/kg/injection, schedule: Q01DX009 (ip), vehicle: saline) is reported as 96 % of control, the T/C (endpoint: mean survival time, dose: 1.25 mg/kg/injection, schedule: Q01DX009 (ip), vehicle: saline) is reported as 102 % of control and the T/C (endpoint: mean survival time, dose: 2.5 mg/kg/injection, schedule: Q01DX009 (ip), vehicle: saline) is reported as 93 % of control. For the same compound, the T/C (endpoint: mean survival time, dose: 2.5 mg/kg/injection, schedule: Q01DX015 (ip), vehicle: carboxymethylcellulose (CMC)) was 95 % of control, the T/C (endpoint: mean survival time, dose: 3.13 mg/kg/injection, schedule: Q04DX003 (ip), vehicle: saline with Tween-80) was 106 % of control and the T/C (endpoint: mean survival time, dose: 5.0 mg/kg/injection, schedule: Q01DX009 (ip), vehicle: saline) was 104 % of control. The T/C (endpoint: mean survival time, dose: 5.0 mg/kg/injection, schedule: Q01DX015 (ip), vehicle: carboxymethylcellulose (CMC)) was 95 % of control, the T/C (endpoint: mean survival time, dose: 6.25 mg/kg/injection, schedule: Q04DX003 (ip), vehicle: saline with Tween-80) was 90 % of control and the T/C (endpoint: mean survival time, dose: 10.0 mg/kg/injection, schedule: Q01DX009 (ip), vehicle: saline with Tween-80) was 92 % of control. The T/C [1] was 96 % of control, the T/C (endpoint: mean survival time, dose: 10.0 mg/kg/injection, schedule: Q01DX015 (ip), vehicle: carboxymethylcellulose (CMC)) was 91 % of control and the T/C (endpoint: mean survival time, dose: 12.5 mg/kg/injection, schedule: Q04DX003 (ip), vehicle: saline with Tween-80) was 94 % of control. The T/C (endpoint: mean survival time, dose: 12.5 mg/kg/injection, schedule: Q04DX003 (ip), vehicle: saline) was 86 % of control, the T/C (endpoint: mean survival time, dose: 20.0 mg/kg/injection, schedule: Q01DX009 (ip), vehicle: saline with Tween-80) was 103 % of control and the T/C (endpoint: mean survival time, dose: 25.0 mg/kg/injection, schedule: Q04DX003 (ip), vehicle: saline with Tween-80) was 105 % of control. For the same compound, the T/C (endpoint: mean survival time, dose: 50.0 mg/kg/injection, schedule: Q01DX001 (ip), vehicle: saline) was 104 % of control and 106 % of control, the T/C [2] was 95 % of control and 91 % of control and the T/C [3] was 112 % of control. For the same compound, the T/C (endpoint: mean survival time, dose: 400.0 mg/kg/injection, schedule: Q01DX001 (ip), vehicle: saline) was 106 % of control.

For `CSC(N)=Nc1c(C)cccc1C`, the T/C (endpoint: mean survival time, dose: 50.0 mg/kg/injection, schedule: Q04DX003 (ip), vehicle: saline) was 102 % of control, the T/C [2] was 98 % of control and the T/C (endpoint: mean survival time, dose: 100.0 mg/kg/injection, schedule: Q04DX003 (ip), vehicle: saline) was 106 % of control. For the same compound, the T/C [3] was 100 % of control and the T/C (endpoint: mean survival time, dose: 200.0 mg/kg/injection, schedule: Q04DX003 (ip), vehicle: saline) was 101 % of control.
